Laboratory results reported in US12203103B2, “Selection marker for cell transfection and protein production” (Sanofi, priority 2014, dated 2025).

Key:
CHO 9E4 cells [1] = details: MSX 25 μM; 13C3; 960 wells tested; growing clones after 15 to 20 days
CHO 9E4 cells [2] = assay: Preliminary culture of CHO 9E4 cells with leflunomide; type: cell-based, Chinese hamster; details: leflunomide at 50 and 100 μM; preliminary experiments
Procedure: This obtained 27 wells with growing cells. Of these 27, 4 produced low but significant amount 13C3 antibody. However production was unstable and the efficiency was low below 0.1%. These experiments served as proof of principle that DHODH can be used as a selectable marker for recombinant protein production, so further experiments were performed.

CHO 9E4 cell line = assay: Selection of stably transfected CHO 9E4 cells with leflunomide or teriflunomide as selection agent; type: cell-based, Chinese hamster; details: for Antibody: Less than 10 μg/ml (number of wells) / Antibody: More than 10 μg/ml (number of wells) / % of Occupied / % of Producers / Occupied (number of wells): Teriflunomide 50 μM; for % of Occupied / % of Producers / Occupied (number of wells): 480 wells tested; for Occupied (number of wells): growing clones after 15 to 20 days
From the text: The CHO 9E4 cell line was transfected with two different plasmids bearing the cDNA encoding human DHODH cDNA and the genetic material for production of anti CD38 or 13C3 antibodies (vectors pBH4952 and pBH4967). As a control vector for selection, the plasmid bearing a cDNA encoding human GS cDNA instead of DHODH (pBH3695) was transfected using into CHO 9E4 cell lines. The genetic material was transfected using standard electroporation techniques.
Twenty four hours post transfection, the selection process was started. […] The control vector was equally transfected and submitted to the same selection process.
In each case, 480 wells were seeded with 2000 cells/well.

CS(=N)(=O)CC[C@H](N)C(=O)O (stereo partly drawn) [MSX, L-methionine sulfoximine]
Occupied (number of wells) (CHO 9E4 cells [1]): 46

Cc1oncc1C(=O)Nc1ccc(C(F)(F)F)cc1 [leflunomide, 5-methyl-N-[4-(trifluoromethyl)phenyl]-isoxazole-4-carboxamide]
effect on CHO 9E4 cell growth (CHO 9E4 cells [2]): did not kill the cells but inhibited growth | antibody in supernatants of the 480 wells (CHO 9E4 cell line; leflunomide 50 and 100 μM): none of the supernatants showed detectable amount of antibodies | wells displaying growing clones (CHO 9E4 cell line; leflunomide 50 and 100 μM, DHODH from human or hamster origin, after 20 days): all the wells were displaying growing clones

C/C(O)=C(\C#N)C(=O)Nc1ccc(C(F)(F)F)cc1 [teriflunomide, (2Z)-2-cyano-3-hydroxy-N-[4-(trifluoromethyl)phenyl]but-2-enamide]
Antibody: Less than 10 μg/ml (number of wells) (CHO 9E4 cell line; 13C3): 24 | Antibody: More than 10 μg/ml (number of wells) (CHO 9E4 cell line; 13C3): 14 | % of Occupied (CHO 9E4 cell line; 13C3): 8% | % of Producers (CHO 9E4 cell line; 13C3): 3% | Occupied (number of wells) (CHO 9E4 cell line; 13C3): 38 | Antibody: Less than 10 μg/ml (number of wells) (CHO 9E4 cell line; anti-CD38): 29 | Antibody: More than 10 μg/ml (number of wells) (CHO 9E4 cell line; anti-CD38): 19 | % of Occupied (CHO 9E4 cell line; anti-CD38): 10% | % of Producers (CHO 9E4 cell line; anti-CD38): 4% | Occupied (number of wells) (CHO 9E4 cell line; anti-CD38): 48 | growth of cells transfected with control vector (CHO 9E4 cell line; control vector pBH3695 (human GS), 50 and 100 μM teriflunomide, even after 25 days, 480 wells): no growth was observed in any of the wells | wells with growing cells (CHO 9E4 cell line; teriflunomide-selected, human DHODH vectors pBH4967 and pBH4952, two weeks later): 8-10% | growth of cells transfected with hamster DHODH vectors (CHO 9E4 cell line; teriflunomide-selected, vectors pBH4940 and pBH4939): no growth was observed in any of the wells
